Values of other authors as cited in US6673333B1, “Functional MRI agents for cancer imaging” (Research Corporation Technologies, Inc., priority 2000, dated 2004).

Columns and labels:
[1] = thermodynamic stability of the Gd(III) chelate complex
[2] = at physiological pH

stability constant (K), formation constant, logK [1]	dissociation kinetics [2]	SMILES
22.4	–	O=C([O-])CN(CCN(CC(=O)[O-])CC(=O)[O-])CCN(CC(=O)[O-])CC(=O)[O-].[Gd+3] [Gd(DTPA)^2−]
28.5	very slow	O=C([O-])CN1CCN(CC(=O)[O-])CCN(CC(=O)O)CCN(CC(=O)[O-])CC1.[Gd+3] [Gd-DOTA]
